# Source: paper PMC4138103 (PLoS ONE, 2014)
# Tested on: Sprague-Dawley rats
# Assay: In-life observations, 28-day repeated dose oral toxicity study
# Assay type: in vivo, Rattus norvegicus
# From the text: The experimental protocol followed the OECD 407 Guideline on Repeated dose 28-day oral toxicity study in rodents, which was enhanced for detection of endocrine, neurotoxicity, retinoid, bone and DNA damage endpoints. In order to improve the assessment of dose-response relationships the number of rats per gender per dose group was reduced to 5 and the amount of dose groups was increased to 8. To rapidly achieve the kinetic steady state, the total dose was divided into 6 daily loading doses and 3 weekly maintenance doses, which were calculated according to the formula [21]. [drawing 1] where [drawing 2] = loading dose
# Loading doses were administered on days 0–5 and maintenance doses on days 10, 17 and 24 of the study. Selection of the highest dose was based on a pilot study.
# Food and water consumption per cage was recorded once weekly. For determination of the stage of the estrous cycle vaginal smears were collected from female rats daily starting from day 23 of the study. This was done to ensure that the females were at the diestrous stage during necropsy.
smiles,measurement,setting,value
"Clc1cc(Cl)c(-c2cc(Cl)c(Cl)c(Cl)c2Cl)cc1Cl [PCB 180, 2,2′,3′,4,4′,5,5′-heptachlorobiphenyl]",Body weight development,"1700 mg/kg bw, both genders, during loading dosing, recovered completely by end of study",retarded
same,"Feed consumption, maximal temporary reduction","females, three highest doses, during loading dosing",about 20%
same,"Feed consumption, maximal temporary reduction","males, two highest doses, during loading dosing",about 25%
same,Water consumption,"rat, in vivo",unaffected
same,Mortality,"total doses 3-1700 mg/kg bw, both genders",no mortality
